# Measured values from patent publication US5182367A, “5-lipoxygenase activating protein” (priority 1990, dated 1993).
# Tests used:
# leukotriene biosynthesis = leukotriene biosynthesis / production (cells not specified); type: cell-based; settings: result in words, cells not given
# 18kD protein (FLAP) [1] = target: T1, 18kD protein (FLAP) (Homo sapiens, UniProt P20292); test: photoaffinity labelling of the 18kD protein with 125I-L-669,083; type: binding; settings: for inhibition of photoaffinity labelling of the 18kD protein: 125I-L-669,083 probe, result in words
# T1 construct: Incubation of ^125 I-L-669,083 with neutrophil extracts followed by irradiation with ultraviolet light; from tissue; host or cells: neutrophil extracts / human leukocyte membranes (endogenous protein)
# T1 sequence (P20292 1-161): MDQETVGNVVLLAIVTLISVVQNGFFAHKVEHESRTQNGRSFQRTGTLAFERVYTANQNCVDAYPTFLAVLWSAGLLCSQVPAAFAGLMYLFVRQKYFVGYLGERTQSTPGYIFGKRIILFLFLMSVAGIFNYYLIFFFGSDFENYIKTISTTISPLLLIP
# From the text: The cellular target of MK-886 was identified by its specific labelling with an I^125 radio-labelled photoaffinity probe (^125 I-L-669,083) and by its retention on agarose gels to which analogues of MK-886 had been bound. […] This protein co-migrated on SDS-polyacrylamide gels with the photoaffinity-labelled protein. The 18kD protein comprised a minor portion of the […]-centrifugation pellet protein and was essentially absent from other cellular fractions.
# A polyclonal rabbit antibody was prepared to the N-terminal 39 amino acids of the 18kD protein. The peptide immunogen was prepared by fusion of the DNA sequence coding for the peptide to the N-terminus of Che Y protein, and its expression in and purification from E. coli (Gan, Z. R., Gene 79, 159-166 (1989)). […] When human leukocyte membranes labelled with the ^125 I-L-669,083 photoaffinity probe were immunoprecipitated with the antipeptide antibody, a single labelled protein of Mr 18,000 was observed which was absent in membranes labelled in the presence of competing MK-886.
# 18kD protein (FLAP) [2] = target: T2, 18kD protein (FLAP) (Rattus norvegicus, UniProt P20291); test: elution of the 18kD protein from MK-886 analogue affinity columns; type: binding, rat and human; settings: solubilized neutrophil membranes, result in words
# T2 sequence (P20291 1-161): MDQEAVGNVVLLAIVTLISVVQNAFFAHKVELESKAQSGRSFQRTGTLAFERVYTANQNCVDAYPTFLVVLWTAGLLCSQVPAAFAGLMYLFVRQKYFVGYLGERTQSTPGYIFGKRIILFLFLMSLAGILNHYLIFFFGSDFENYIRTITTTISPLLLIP
# Method: Rat peritoneal neutrophils (Ham, E. A. et al. Proc. Natn. Acad. Sci. USA 80, 4349-4353 (1983)) and human peripheral neutrophils (Boyum, A. Scand. J. Clin. Lab. Invest. (suppl. 97) 21, 77-89 (1968)) at 10^8 cells/ml were sonicated in 50 mM Tris-HCl buffer, pH 7.4, 140 mM NaCl, 2 mM EDTA, 1 mM DTT (dithiotreitol), 10% glycerol (homogenization buffer), together with the protease inhibitors 1 mM phenylmethylsulphonyl fluoride, […], and 10 mM furyl saccharine. After removal of 1000 g and 10,000 g-centrifugation pellets, the 100,000 g pellet was resuspended (3 mg/ml) in the homogenization buffer.
# To purify FLAP, the microsome suspension was solubilized on ice for 30 minutes in 50 mM Tris-HCl buffer, pH 7.4, with 140 mM NaCl, 0.5 mM DTT, 5% glycerol and 1% CHAPS detergent (3-[(3-cholamidopropyl)-dimethylammonio]-1-propanesulfonate). After centrifugation for 10 minutes at 30,000 g, the supernatant was applied to 3 ml columns (6×10^9 cell equivalents per column) containing the affinity gel which was prepared by coupling MK-886 in THF (tetrahydrofuran) to pre-activated Affi-Gel 10, capping with ethanolamine,and washing with isopropanol. The columns were washed with […] solubilization buffer for 16 hours at 5° C. and eluted for 1 hour with four column volumes of buffer containing 100 μM MK-886.
# [3] = system: osteosarcoma 143 cell line expressing 5-LO and FLAP; test: A23187-stimulated LT synthesis in the 5-LO/FLAP cell line; type: cell-based, human
# Method: (§1) When the parental osteosarcoma 143 cells or the cells expressing 5-LO or FLAP alone were treated with the Ca^2+ ionophore A23187, no arachidonic acid metabolites were detected. […] A23187-treated rat neutrophils produced these products, as well as 5-HETE and the LTB4 metabolites 20-hydroxy LTB4 and 20-carboxy LTB4. The 5-LO/FLAP cell line produced only 14% of the neutrophil level of LTB4 (0.15 nmol/mg protein versus 1.1 nmol/mg protein), while it produced 41% as much of the LTA4 hydrolysis products (0.064 nmol 6-trans LTB4 and 0.059 nmol 6-trans-12-epi LTB4 /mg protein versus 0.18 nmol 6-trans LTB4 and 0.12 nmol 6-trans-12-epi LTB4 /mg protein).
# (§2) Normal rat peritoneal neutrophils were prepared as described by Ham, E. A. et al. (1983, supra). Osteosarcoma 143 cell lines expressing 5-LO were isolated by the method of Rouzer, C. A. et al., J. Biol. Chem. 263, 10135-10140 (1988). The expression vector used contains the CMV immediate early promoter which drives the expression of the 5-LO gene, a hygromycin resistance gene as a selectable marker, and the EBV origin of replication (Rouzer et al., supra). An EcoRI fragment derived from the RBL-1 cDNA clone containing the cDNA insert for rat FLAP was cloned into the EcoRI site of the vector pSVLneo (Dixon, R. A. F. et al., Nature 326, 73-79 (1987)). […]
# [4] = system: rat peritoneal neutrophils; test: A23187-stimulated LT synthesis in neutrophils; type: cell-based
# Method: as §1, §2
# [5] = system: leukotriene synthesis in human leukocytes; test: inhibition of leukotriene synthesis in human leukocytes; type: cell-based; settings: Leukocyte; human leukocytes at similar protein concentrations
SMILES,inhibition of photoaffinity labelling of the 18kD protein (18kD protein (FLAP) [1]),elution of the 18kD protein from affinity columns/gels (18kD protein (FLAP) [2]),inhibition of leukotriene biosynthesis / production (leukotriene biosynthesis),LT synthesis blocked [3],LT synthesis blocked [4],IC50 (18kD protein (FLAP) [1]),IC50 [5]
CN1CCN(CCCN2c3ccccc3Sc3ccc(C(F)(F)F)cc32)CC1 [trifluoroperazine],nor inhibited photoaffinity labelling,,inhibitory effects on leukotriene production,,,,
Clc1ccc(C(c2ccc(Cl)cc2)n2cc[n+](CC(OCc3ccc(Cl)cc3Cl)c3ccc(Cl)cc3Cl)c2)cc1 (stereo not drawn) [calmidazolium],nor inhibited photoaffinity labelling,neither eluted the 18kD protein,inhibitory effects on leukotriene production,,,,
"O=c1ccc2nc3ccccc3sc-2c1Cl [L-615,919, 4-chloro-3H-phenothiazin-3-one]",,,,blocked LT synthesis,blocked LT synthesis,,
"CC(C)c1ccc2c(c1)c(SC(C)(C)C)c(CC(C)(C)C(=O)O)n2Cc1ccc(Cl)cc1 [MK-886, 3-[1-(4-chlorobenzyl)-3-t-butylthio-5-isopropylindol-2-yl]-2,2-dimethylpropanoic acid]",,eluted by MK-886,,blocked LT synthesis,blocked LT synthesis,80 nM,100 nM
CC(Cc1ccc(O)c(O)c1)C(C)Cc1ccc(O)c(O)c1 (stereo not drawn) [nordihydroguairaretic acid],nor inhibited photoaffinity labelling,neither eluted the 18kD protein,inhibitory effects on leukotriene production,,,,

# Further lines, with some results ahead:
inhibition of photoaffinity labelling of the 18kD protein (18kD protein (FLAP) [1]),elution of the 18kD protein from affinity columns/gels (18kD protein (FLAP) [2]),SMILES,inhibition of leukotriene biosynthesis / production (leukotriene biosynthesis),LT synthesis blocked [3],LT synthesis blocked [4],IC50 (18kD protein (FLAP) [1]),IC50 [5]
nor inhibited photoaffinity labelling,neither eluted the 18kD protein,"COc1ccc2nc3cc(OC)c(=O)c(Br)c-3sc2c1 [L-651,392]",inhibitory effects on leukotriene production,,,,
did not inhibit photoaffinity labelling,nor did they elute this protein,"COc1ccc2c(c1)c(C(C)C(=O)O)c(C)n2Cc1ccc(Cl)cc1 [L-583,916, 2-(1-p-chlorobenzyl-5-methoxy-2-methylindol-3-yl)propionic acid]",do not inhibit leukotriene biosynthesis,,,,
